Values quoted from earlier work in patent US9642356B2, “Maturation or ripening inhibitor release from polymer, fiber, film, sheet or packaging” (Cellresin Technologies, LLC, priority 2009, dated 2017).

Tests used:
[1] = test system: ethylene generation
[2] = test system: ethylene binding site

SMILES	activity for inhibiting ethylene generation [1]	blocking of ethylene binding [2]
CC1=CC1 [Example 1-MCP, 1-methylcyclopropene]	at least some measurable activity	
C1=CCC=C1 [Cyclopentadiene]		effective blocking agent for ethylene binding
C=CCC [Example 1-butene, 1-butene]	at least some measurable activity	
